Laboratory results as given in patent US11382328B2, “Rapid drug discovery methods for pathogen inactivation” (priority 2019, dated 2022).

System: E. coli strain W3110
Assay: Synergy assays: Biolog chemical sensitivity panels with Group IB metal, coefficient of drug interaction (CDI) from relative growth
Type: cell-based
Details: for CDI (coefficient of drug interaction), copper mixed with biocide: Copper (mM) section; for CDI (coefficient of drug interaction): Gold section of Table 5; for CDI (coefficient of drug interaction), silver + biocide: E. coli

Substance: poly-L-lysine
- CDI (coefficient of drug interaction), copper mixed with biocide (1st of 3 copper concentrations (value not shown), 1st of four biocide concentrations): 1.15
- CDI (coefficient of drug interaction), copper mixed with biocide (1st of 3 copper concentrations (value not shown), 2nd of four biocide concentrations): 0.95
- CDI (coefficient of drug interaction), copper mixed with biocide (1st of 3 copper concentrations (value not shown), 3rd of four biocide concentrations): Tox
- CDI (coefficient of drug interaction), copper mixed with biocide (1st of 3 copper concentrations (value not shown), 4th of four biocide concentrations): Tox
- CDI (coefficient of drug interaction), copper mixed with biocide (2nd of 3 copper concentrations (value not shown), 1st of four biocide concentrations): 1.03
- CDI (coefficient of drug interaction), copper mixed with biocide (2nd of 3 copper concentrations (value not shown), 2nd of four biocide concentrations): 0.96
- CDI (coefficient of drug interaction), copper mixed with biocide (2nd of 3 copper concentrations (value not shown), 3rd of four biocide concentrations): Tox
- CDI (coefficient of drug interaction), copper mixed with biocide (2nd of 3 copper concentrations (value not shown), 4th of four biocide concentrations): Tox
- CDI (coefficient of drug interaction), copper mixed with biocide (3rd of 3 copper concentrations (value not shown), 2nd of four biocide concentrations): 0.59
- CDI (coefficient of drug interaction), copper mixed with biocide (3rd of 3 copper concentrations (value not shown), 3rd of four biocide concentrations): Tox
- CDI (coefficient of drug interaction), copper mixed with biocide (3rd of 3 copper concentrations (value not shown), 4th of four biocide concentrations): Tox
- CDI (coefficient of drug interaction) (first of three gold concentrations (μM, value not given), biocide concentration 1 of 4): 1.07
- CDI (coefficient of drug interaction) (first of three gold concentrations (μM, value not given), biocide concentration 2 of 4): 0.98
- CDI (coefficient of drug interaction) (first of three gold concentrations (μM, value not given), biocide concentration 3 of 4): Tox
- CDI (coefficient of drug interaction) (first of three gold concentrations (μM, value not given), biocide concentration 4 of 4): Tox
- CDI (coefficient of drug interaction) (second of three gold concentrations (μM, value not given), biocide concentration 1 of 4): 1.08
- CDI (coefficient of drug interaction) (second of three gold concentrations (μM, value not given), biocide concentration 2 of 4): 1.06
- CDI (coefficient of drug interaction) (second of three gold concentrations (μM, value not given), biocide concentration 3 of 4): Tox
- CDI (coefficient of drug interaction) (second of three gold concentrations (μM, value not given), biocide concentration 4 of 4): Tox
- CDI (coefficient of drug interaction) (third of three gold concentrations (μM, value not given), biocide concentration 1 of 4): 0.93
- CDI (coefficient of drug interaction) (third of three gold concentrations (μM, value not given), biocide concentration 2 of 4): 0.88
- CDI (coefficient of drug interaction) (third of three gold concentrations (μM, value not given), biocide concentration 3 of 4): Tox
- CDI (coefficient of drug interaction) (third of three gold concentrations (μM, value not given), biocide concentration 4 of 4): Tox
- CDI (coefficient of drug interaction), silver + biocide (Silver 0.5 μM, 1st of four biocide concentrations): 0.92
- CDI (coefficient of drug interaction), silver + biocide (Silver 0.5 μM, 2nd of four biocide concentrations): 0.96
- CDI (coefficient of drug interaction), silver + biocide (Silver 0.5 μM, 3rd of four biocide concentrations): Tox
- CDI (coefficient of drug interaction), silver + biocide (Silver 0.5 μM, 4th of four biocide concentrations): Tox
- CDI (coefficient of drug interaction), silver + biocide (Silver 1.0 μM, 1st of four biocide concentrations): 0.88
- CDI (coefficient of drug interaction), silver + biocide (Silver 1.0 μM, 2nd of four biocide concentrations): 0.88
- CDI (coefficient of drug interaction), silver + biocide (Silver 1.0 μM, 3rd of four biocide concentrations): Tox
- CDI (coefficient of drug interaction), silver + biocide (Silver 1.0 μM, 4th of four biocide concentrations): Tox
- CDI (coefficient of drug interaction), silver + biocide (Silver 5.0 μM, 3rd of four biocide concentrations): Tox
- CDI (coefficient of drug interaction), silver + biocide (Silver 5.0 μM, 4th of four biocide concentrations): Tox
